No end group written: not given here.
Legend:
[1] = system: HIV-1IIIB; test: HIV-1 antiviral assay (CPE reduction, MTS); assay type: cell-based; settings: peptide 10 micrograms per ml, 6 days post-infection
[2] = system: Pseudomonas aeruginosa; assay type: cell-based; settings: 5 micrograms per ml
[3] = system: Streptococcus pneumoniae; assay type: cell-based; settings: 5 micrograms per ml
[4] = system: MRSA; settings: 5 micrograms per ml
[5] = in vitro; settings: human, HepG2-2.2.15 cells
Procedure: HepG2-2.2.15 cells were plated in 96-well microtiter plates. After 16-24 hours the confluent monolayer of HepG2-2.2.15 cells was washed and the medium was replaced with complete medium containing test peptide—10 micrograms per ml—in duplicate. […] Three days later the culture medium was replaced with fresh medium containing the peptide. […] A novel dye uptake assay was then employed to measure cell viability, which is used to calculate toxicity (% cell control).

[6] = Cytotoxicity in MRC-5 cells (CellTiter 96); settings: human
[7] = Cytotoxicity in CEM-SS cells (MTS cell viability); settings: human

| Compound | % CPE reduction in HIV-1 infected CEM-SS cells [1] [%] | % inhibition [2] [%] | % inhibition [3] [%] | % inhibition [4] [%] | viability at 144 h, 10 micrograms per ml [5] [%] | viability at 144 h [6] [%] | viability at 10 micrograms per ml [7] [%] |
| --- | --- | --- | --- | --- | --- | --- | --- |
| Cc1cn([C@H]2C[C@H](N=[N+]=[N-])[C@@H](CO)O2)c(=O)[nH]c1=O [AZT] | 99 |  |  |  |  |  |  |
| SFLLRNPNDKYEPF-OH [TRAP-14] |  | 0.0 | 0.0 | 0.0 | 84.5 | 100 | 100 |
